# Data: patent US8710237B2, “Small molecule inhibitors of kynurenine-3-monooxygenase” (The J. David Gladstone Institute, priority 2006, dated 2014)
# Marks after values point to notes of the source that are not given here.
# What was measured:
# [1] = tested on: kynurenine-3-monooxygenase; experiment: KMO inhibition, radiometric assay (Erickson et al.); type: biochemical; details: 10 μM compound
# Procedure: The KMO inhibiting activities of the compounds of the present invention were evaluated using standard methods. See Erickson et al., A Radiometric Assay for Kynurenine 3-Hydroxylase Based on the Release of ^3H2O During Hydroxylation of L-[3,5-^3H]-Kynurenine, Anal. Biochem. 1992, 205, 257-262, the disclosure of which is hereby incorporated by reference.
# The IC50 value is the half maximal inhibitory concentration and represents the concentration of an inhibitor that is required for 50% inhibition of an enzyme activity and the percent inhibition measures the amount of enzyme activity inhibited at a given concentration of compound.
# [2] = tested on: R6/2 model of Huntington's disease; experiment: Survival in a mouse model of Huntington's disease (FIG. 13); type: in vivo; details: R6/2 mice
# Description: The structure of the compound M is
# [3] = tested on: 3-HK in the brain; experiment: In vivo comparison: 3-HK in the brain after oral administration (FIG. 12)
# Description: The structure of the compound 61-8048 is as below:
SMILES,% inhibition at 10 μM [1],melting point [°C],also measured
"COc1ccc(S(=O)(=O)Nc2nc(-c3cccc([N+](=O)[O-])c3)c(CN3CCCCC3)s2)cc1OC [C, 3,4-dimethoxy-N-[4-(3-nitrophenyl)-5-(piperidin-1-ylmethyl)-1,3-thiazole-2-yl]benzenesulfonamide]",24%,,
"CCOC(=O)CN(c1nc(-c2cccc([N+](=O)[O-])c2)cs1)S(=O)(=O)c1ccc(OC)c(OC)c1 [U, 3,4-dimethoxy-N-[4-(3-nitrophenyl)thiazol-2-yl]-N-[(ethylcarboxylate)methyl]benzenesulfonamide]",81%,,
COc1ccc(S(=O)(=O)Nc2nc(-c3cccc([N+](=O)[O-])c3)c(CN3CCSCC3)s2)cc1OC,,136,
"COc1ccc(S(=O)(=O)Nc2nc(-c3cccc([N+](=O)[O-])c3)c(CN3CCCC3)s2)cc1OC [B, 3,4-dimethoxy-N-[4-(3-nitrophenyl)-5-(pyrrolidin-1-ylmethyl)-1,3-thiazole-2-yl]benzenesulfonamide]",9* %,198 to 200,
"COc1ccc(S(=O)(=O)N(C)c2nc(-c3cccc([N+](=O)[O-])c3)cs2)cc1OC [T, 3,4-dimethoxy-N-[4-(3-nitrophenyl)thiazol-2-yl]-N-(methyl)benzenesulfonamide]",52%,,
"COc1ccc(S(=O)(=O)Nc2nc(-c3cccc([N+](=O)[O-])c3)c(CN3CCOCC3)s2)cc1OC [D, 3,4-dimethoxy-N-[4-(3-nitrophenyl)-5-morpholinomethyl-1,3-thiazole-2-yl]benzenesulfonamide]",64%,143,
COc1ccc(S(=O)(=O)N(CN2CCCCC2)c2nc(-c3cccc([N+](=O)[O-])c3)cs2)cc1OC [Compound M],,,magnitude of the effect of protection (survival) [2]: equal to or greater to that reported for any single agent administered in this model
"COc1ccc(S(=O)(=O)Nc2nc(-c3cccc([N+](=O)[O-])c3)c(CN(C)C)s2)cc1OC [A, 3,4-dimethoxy-N-[4-(3-nitrophenyl)-5-dimethylaminomethyl-1,3-thiazole-2-yl]benzenesulfonamide]",58%,203,
"COc1ccc(S(=O)(=O)Nc2nc(-c3cccc([N+](=O)[O-])c3)c(CN3CCN(C)CC3)s2)cc1OC [E, 3,4-dimethoxy-N-[4-(3-nitrophenyl)-5-((4-methylpiperazin-1-yl)methyl)-1,3-thiazole-2-yl]benzenesulfonamide]",6* %,215 to 217,
"COc1ccc(S(=O)(=O)Nc2nc(-c3cccc([N+](=O)[O-])c3)cs2)cc1OC [Compound 61-8048, 3,4-Dimethoxy-N-[4-(3-nitrophenyl)thiazol-2-yl]benzenesulfonamide, reference compound]",,,"effect on survival ([2]; 100 mg/kg/day, not shown in the figure): did not have a significant effect on survival; decrease of 3-HK in the brain [3]: does not decrease"
"CCOC(=O)N(c1nc(-c2cccc([N+](=O)[O-])c2)cs1)S(=O)(=O)c1ccc(OC)c(OC)c1 [V, 3,4-dimethoxy-N-[4-(3-nitrophenyl)thiazol-2-yl]-N-(ethylcarboxylate)benzenesulfonamide]",84%,,
"CCN(CC)Cc1sc(NS(=O)(=O)c2ccc(OC)c(OC)c2)nc1-c1cccc([N+](=O)[O-])c1 [F, 3,4-dimethoxy-N-[4-(3-nitrophenyl)-5-(diethylamino)methyl-1,3-thiazole-2-yl]benzenesulfonamide]",74%,165 to 168,
"COC(=O)N(c1nc(-c2cccc([N+](=O)[O-])c2)cs1)S(=O)(=O)c1ccc(OC)c(OC)c1 [W, 3,4-dimethoxy-N-[4-(3-nitrophenyl)thiazol-2-yl]-N-(methylcarboxylate)benzenesulfonamide]",85%,,
"CCCN(C)Cc1sc(NS(=O)(=O)c2ccc(OC)c(OC)c2)nc1-c1cccc([N+](=O)[O-])c1 [G, 3,4-dimethoxy-N-[4-(3-nitrophenyl)-5-(methylpropylamino)methyl-1,3-thiazole-2-yl]benzenesulfonamide]",73%,143 to 145,
